Data on two compounds can be found in US9975860B2, “Anti-angiogenic compounds” (UNIVERSITY COLLEGE DUBLIN—NATIONAL UNIVERSITY OF IRELAND, …, priority 2014, dated 2018).

One data set has as its system PAI-1. In words: Multiplex ELISA of HMEC media: PAI-1. It counts as cell-based, human. Particulars: compound-treated HMECs, 16 hours. The protocol: (§1) Dermal-derived Human Microvascular Endothelial Cells (HMEC) were maintained at 37° C./5% CO2 in MCDB-131 medium (Gibco/cat: 10372) supplemented with 10% FCS, L-Glutamine (Gibco/cat: 25030-032), 1 μl/ml Hydrocortisone (Sigma/cat: H0396), 10 ng/ml EGF (BD Biosciences 354001) and 1% Pen-Strep (Gibco/cat: 151040-148). The wells of a μ-slide angiogenesis plate (IBIDI Cat no: 81506) were coated with a layer of matrigel matrix (BD 356234) which was left to polymerize for 45 minutes at 37° C. HMECs were grown to 80% confluence, washed with DPBS (Invitrogen) and trypsinised using 2 ml TrypLE™ Express (1×) (Invitrogen). Cells were centrifuged following flask detachment at 1200 rpm for 4 minutes. The cell pellet was resuspended in 3 ml full media and a cell count was performed using a haemocytometer. 7.5×10^3 cells were pipetted into each matrigel coated well of the μ-slide angiogenesis plate and treated with either 0.1% DMSO or 1, 3.16 or 10 μM compound 4 or compound 18. The slide was kept at 37° C./5% CO2 during cell tube formation. After 16 hours, 50 μl of media was removed from each of the Ibidi wells and 25 μl of the media was run in each well of a Meso Scale Discovery (MD, USA) custom multiplex ELISA containing the following analytes: Ang-1, Ang-2, VEGF, bFGF, PAI-1, sICAM and sVCAM. The ELISA was run as per manufacturer's instructions.
For orientation: ELISA stands for enzyme-linked immunosorbent assay.

Data set [1] deals with primary hyaloid vessels in zebrafish. In words: Quantification of primary hyaloid vasculature branch number in Tg(fli1:EGFP) zebrafish. The data set is classed as in vivo. The protocol: All experiments were carried out under ethical approval granted by the UCD animal research ethics committee. Tg(fli1:EGFP) zebrafish were maintained according to standard procedures on a 14 hr light/10 hr dark cycle at 28° C. Embryos were obtained by natural spawning and developmental stages established by time and morphological criteria. At 48 hours post fertilisation (hpf), 5 embryos per well were placed in 400 μl of Embryo Medium/0.1% DMSO and incubated with compound (typically, 10 μM) at 28° C. on a 14 h light/10 h dark cycle. At 5 days post fertilisation (dpf), larvae were euthanised, and fixed in 4% PFA at 4° C. overnight before analysis.
Prior to analysis of the intraocular vasculature, the control and treated larvae were observed under an Olympus SZX16 stereo zoom microscope and screened for general malformations. Overall patterning of the vasculature (fin, gut and intersegmental vessels) was examined for abnormalities. Right lenses were dissected from the larvae and transferred to depression slides for observation under epi-fluorescence in the Olympus SZX16. Patterning of the hyaloid vessels on the treated larval lenses was compared to 0.1% DMSO controls and the archetypal pattern previously described (Alvarez et al., 2007; Alvarez et al., 2009). The number of primary vessels radiating from the back of the lens (3-4 main branches at 5 dpf in controls and previously described), was counted and the average number was graphed for each drug.
(§2) All experimental protocols were carried out as per example 1 and 2. Briefly, zebrafish larvae were treated with 10 μM of AT-051/41206012 (chemical name 2-[2-(2-methoxyphenyl)ethenyl]pyrazine) purchased from Specs (The Netherlands). At 6 or 48 hours post fertilisation (hpf), 5 embryos per well were placed in 400 μl of Embryo Medium/0.1% DMSO and incubated with 10 μM AT-051/41206012 at 28° C. on a 14 h light/10 h dark cycle. Larvae were treated from 6-48 hpf (intersegmental vessel study) or from 48 to 120 hpf (primary hyaloid vessel study). At the end of the study, larvae were euthanized and fixed in 4% PFA at 4° C. overnight before analysis.
(§3) The number of intersegmental vessels was counted and the average number was graphed for each drug. Right lenses were dissected from the larvae and transferred to depression slides for observation and the number of primary hyaloid vessels radiating from the back of the lens (3-4 main branches at 5 dpf in controls and previously described), was counted and the average number was graphed for each drug.

In a further data set the test system is Ang-1. Description: Multiplex ELISA of HMEC media: Ang-1. It counts as cell-based, human. Conditions: compound-treated HMECs, 16 hours. The protocol: as §1
Data set [2] has as its system intersegmental vasculature in zebrafish. Description: Quantification of intersegmental vessel number in zebrafish. It counts as in vivo. Conditions: 10 μM; zebrafish embryos treated 6 hpf to 48 hpf. How it is done:
At 6 hours post fertilisation, 5 embryos per well were placed in 400 μL of embryo medium/0.1% DMSO and incubated with 10 μM compound at 28° C. on a 14 h light/10 h dark cycle. At 48 hpf larvae were manually dechorionated, euthanised, and fixed in 4% PFA at 4° C. overnight before analysis. The larvae were then washed with PBS and transferred to depression slides for observation under epi-fluorescence in an Olympus SZX16 fluorescent microscope. The number of intersegmental vessels was counted and the average number was graphed for each drug.
as §2, §3

Another data set concerns sVCAM-1. Description: Multiplex ELISA of HMEC media: sVCAM-1. It counts as cell-based, human. Conditions: compound-treated HMECs, 16 hours. The protocol: as §1
In data set [3] the test system is human endothelial (HMEC) cells. Description: MTT cell viability assay in HMEC. It counts as cell-based. Conditions: 10 μM, 24 hours. How it is done:
(§4) A 3-(4,5-dimethylthiozol-2-yl)-2,5-diphenyltetrazolium bromide (MTT) dye reduction assay was carried out to determine the cytotoxicity of each compound on either human microvascular endothelial cells (HMECs) or human retinal pigmented epithelium cells (ARPE-19). Cells were maintained in a 95% air and 5% CO2 atmosphere at 37° C. in Dulbecco modified Eagle medium (DMEM, Sigma Aldrich) with 10% fetal bovine serum, 2 mM Gibco® L-glutamine and 100 units/ml penicillin, 1 mg/ml streptomycin (Invitrogen) supplementation. On day 1, cells were trypsinized (Trypsin-EDTA 1×) and seeded 1.4×10^4 cells per well of a 96 well plate and incubated overnight. On day 2, cells were serum staved in DMEM with L-glutamine and penicillin-streptomycin supplementation for 24 h. On day 3, cells were drug treated for 24 h (HMECs) or 96 h (ARPE-19 cells) with 0.1% DMSO or 10 μM to 90 μM of each compound 4, 8, 15, 18 or 20, with 4 replicate wells of each compound. After 24-96 h, cells were incubated with […] 5 mg/ml MTT labelling Reagent (Roche) for 2 h. Subsequently, when purple formazan crystals formed cells were incubated with 1× solubilisation solution (Roche) for 4 h and absorbance read at 570 nm using a microplate reader.
(In general: Tetrazolium dyes change colour on reduction, which living cells bring about.)

Another data set concerns sICAM-1. In words: Multiplex ELISA of HMEC media: sICAM-1. The data set is classed as cell-based, human. Conditions: compound-treated HMECs, 16 hours. The protocol: as §1
Data set [4] deals with human retinal (ARPE-19) cells. In words: MTT cell viability assay in ARPE-19. The data set is classed as cell-based. Particulars: 5, 10, 25, 50, 75 or 90 μM, 96 hours. How it is done: as §4
Setting [5] is: 10 μM, zebrafish larvae treated 48 hpf to 5 dpf, vs 0.1% DMSO control.
The mark [6] stands for this setting: concentrations below 10 μM (range 1, 2.5, 5, 7.5 and 10 μM tested), zebrafish larvae 48 hpf to 5 dpf.

Each structure is given as a SMILES string. Entries after “also recorded” stand apart in the source; their conditions may differ.

On to `Cl.Oc1ccccc1/C=C/c1cnccn1` [Compound 4, (E)-2-[2-(Pyrazin-2-yl)vinyl]phenol hydrochloride], for which the “expression of PAI-1” value in the data set with PAI-1 (hydrochloride) is “significantly reduce; also recorded: reduce expression of Ang-2 and PAI-1 in human endothelial microvascular cells in a statistically significant manner”. The “inhibition of developmental angiogenesis of the hyaloid vasculature (number of primary hyaloid vessels)” value in data set [1] (setting [5]) and in data set [1] (setting [6]) was “inhibit developmental angiogenesis of the zebrafish hyaloid vasculature in a statistically significant manner” each time. In addition, the “expression of Ang-1” value in the data set with Ang-1 is given as “not significantly different to control-treated HMECs”. The “inhibition of developmental angiogenesis of intersegmental vessels (number of intersegmental vessels)” value in data set [2] is on record as “inhibit developmental angiogenesis of zebrafish intersegmental vessels in a statistically significant manner”. For the same compound, the “expression of sVCAM-1” value in the data set on sVCAM-1 is recorded as “not significantly different to control-treated HMECs”. The “cell viability (MTT assay)” value in data set [3] and in data set [4] was “does not affect cell viability” throughout. The “expression of sICAM-1” value in the data set on sICAM-1 is listed as “not significantly different to control-treated HMECs”.

For `Oc1ccccc1C#Cc1cnccn1` [Compound 18, 2-[2-(Pyrazin-2-yl)ethynyl]phenol], the “expression of PAI-1” value in the data set on PAI-1 was “significantly reduce; also recorded: reduce expression of Ang-2 and PAI-1 in human endothelial microvascular cells in a statistically significant manner”. Besides, the “inhibition of developmental angiogenesis of the hyaloid vasculature (number of primary hyaloid vessels)” value in data set [1] (setting [5]) and in data set [1] (setting [6]) was “inhibit developmental angiogenesis of the zebrafish hyaloid vasculature in a statistically significant manner” each time. Also, the “expression of Ang-1” value with Ang-1 is “not significantly different to control-treated HMECs”. In addition, in data set [2], the “inhibition of developmental angiogenesis of intersegmental vessels (number of intersegmental vessels)” value is “inhibit developmental angiogenesis of zebrafish intersegmental vessels in a statistically significant manner”. The “expression of sVCAM-1” value with sVCAM-1 is recorded as “not significantly different to control-treated HMECs”. In addition, the “cell viability (MTT assay)” value in data set [3] and in data set [4] was “does not affect cell viability” throughout. For the same compound, in the data set with sICAM-1, the “expression of sICAM-1” value is on record as “not significantly different to control-treated HMECs”.
